Measured values reported in PubChem BioAssay AID1963841 (Molecular Pharmacology Branch, DTP, NCI, 2024).

Tested on: 439559-082-T-J2-PDC spheroid viability
Test: Anticancer human tumor 439559-082-T-J2-PDC patient-derived colon adenocarcinoma cell line growth inhibition [POLQ]
Details: spheroids with HUVEC and MSC; for IC50: curve of first compound; for viability, T/C: stronger effect = lower value
How it was run: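 Growth inhibition in 3D: complex spheroids (tumor PDC, HUVEC, MSC) treated with POLQ inhibitor combinations; where Cmax unknown, highest tested concentration 10 microM, except SN-38 at 1 microM.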

[1] = second compound 0.0316 µM, first compound 0.0316 µM
[2] = second compound 0.0316 µM, first compound 0.1 µM
[3] = second compound 0.0316 µM, first compound 0.316 µM
[4] = second compound 0.0316 µM, first compound 1 µM
[5] = second compound 0.0316 µM, first compound 3.16 µM
[6] = second compound 0.0316 µM, first compound 10 µM
[7] = second compound 0.1 µM, first compound 0.0316 µM
[8] = second compound 0.1 µM, first compound 0.1 µM
[9] = second compound 0.1 µM, first compound 0.316 µM
[10] = second compound 0.1 µM, first compound 1 µM
[11] = second compound 0.1 µM, first compound 3.16 µM
[12] = second compound 0.1 µM, first compound 10 µM
[13] = second compound 0.316 µM, first compound 0.0316 µM
[14] = second compound 0.316 µM, first compound 0.1 µM
[15] = second compound 0.316 µM, first compound 0.316 µM
[16] = second compound 0.316 µM, first compound 1 µM
[17] = second compound 0.316 µM, first compound 3.16 µM
[18] = second compound 0.316 µM, first compound 10 µM
[19] = second compound 1 µM, first compound 0.0316 µM
[20] = second compound 1 µM, first compound 0.1 µM
[21] = second compound 1 µM, first compound 0.316 µM
[22] = second compound 1 µM, first compound 1 µM
[23] = second compound 1 µM, first compound 3.16 µM
[24] = second compound 1 µM, first compound 10 µM
[25] = second compound 3.16 µM, first compound 0.0316 µM
[26] = second compound 3.16 µM, first compound 0.1 µM
[27] = second compound 3.16 µM, first compound 0.316 µM
[28] = second compound 3.16 µM, first compound 1 µM
[29] = second compound 3.16 µM, first compound 3.16 µM
[30] = second compound 3.16 µM, first compound 10 µM
[31] = second compound 10 µM, first compound 0.0316 µM
[32] = second compound 10 µM, first compound 0.1 µM
[33] = second compound 10 µM, first compound 0.316 µM
[34] = second compound 10 µM, first compound 1 µM
[35] = second compound 10 µM, first compound 3.16 µM
[36] = second compound 10 µM, first compound 10 µM
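Further: spheroids exposed to compounds for seven days before readout.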
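Wherever viability, T/C is given: 100% = DMSO vehicle control viability.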

COc1cc2cc(C(=O)CCC(=O)O)sc2cc1OC + Nc1ccc(C#CCN(C(=O)Cc2ncc(C(F)(F)F)cc2C(F)(F)F)c2ccc(F)cc2)nn1
IC50 (second compound 0.0316 µM): > 10 µM
IC50 (second compound 0.1 µM): > 10 µM
IC50 (second compound 0.316 µM): > 10 µM
IC50 (second compound 1 µM): > 10 µM
IC50 (second compound 3.16 µM): > 10 µM
IC50 (second compound 10 µM): > 10 µM
viability, T/C [1]: 99.2%
viability, T/C [2]: 99.3%
viability, T/C [3]: 96.7%
viability, T/C [4]: 95.8%
viability, T/C [5]: 105%
viability, T/C [6]: 97.5%
viability, T/C [7]: 95%
viability, T/C [8]: 107%
viability, T/C [9]: 93.1%
viability, T/C [10]: 99.2%
viability, T/C [11]: 93%
viability, T/C [12]: 98.7%
viability, T/C [13]: 94.5%
viability, T/C [14]: 101%
viability, T/C [15]: 97.4%
viability, T/C [16]: 93.4%
viability, T/C [17]: 98.1%
viability, T/C [18]: 91.8%
viability, T/C [19]: 96.2%
viability, T/C [20]: 103%
viability, T/C [21]: 90.3%
viability, T/C [22]: 93.6%
viability, T/C [23]: 99.3%
viability, T/C [24]: 88.4%
viability, T/C [25]: 90.5%
viability, T/C [26]: 88.8%
viability, T/C [27]: 98.6%
viability, T/C [28]: 91.3%
viability, T/C [29]: 97%
viability, T/C [30]: 102%
viability, T/C [31]: 107%
viability, T/C [32]: 101%
viability, T/C [33]: 98.2%
viability, T/C [34]: 98.8%
viability, T/C [35]: 96.4%
viability, T/C [36]: 82.6%

CC1COCCN1c1cc(-c2ccnn2C)c2ccnc(-c3ccn[nH]3)c2n1 (stereo unspecified) + Cc1cccc(N(C)C(=O)C2C(O)CCN2c2nc(C)cc(C(F)(F)F)c2C#N)c1
IC50 (second compound 0.0316 µM): 0.557 µM
IC50 (second compound 0.1 µM): 0.397 µM
IC50 (second compound 0.316 µM): 0.311 µM
IC50 (second compound 1 µM): 0.478 µM
IC50 (second compound 3.16 µM): 0.291 µM
IC50 (second compound 10 µM): 0.841 µM
viability, T/C [1]: 91%
viability, T/C [2]: 79.8%
viability, T/C [3]: 50.9%
viability, T/C [4]: 49.7%
viability, T/C [5]: 53.6%
viability, T/C [6]: 43.6%
viability, T/C [7]: 95.5%
viability, T/C [8]: 81.1%
viability, T/C [9]: 51.2%
viability, T/C [10]: 44.3%
viability, T/C [11]: 49.4%
viability, T/C [12]: 43.3%
viability, T/C [13]: 87.7%
viability, T/C [14]: 80.3%
viability, T/C [15]: 49.5%
viability, T/C [16]: 47.8%
viability, T/C [17]: 51.6%
viability, T/C [18]: 40.8%
viability, T/C [19]: 92.9%
viability, T/C [20]: 76.9%
viability, T/C [21]: 52%
viability, T/C [22]: 46.2%
viability, T/C [23]: 51.4%
viability, T/C [24]: 37.4%
viability, T/C [25]: 89%
viability, T/C [26]: 76.8%
viability, T/C [27]: 47.2%
viability, T/C [28]: 46.7%
viability, T/C [29]: 55.8%
viability, T/C [30]: 42%
viability, T/C [31]: 82.3%
viability, T/C [32]: 72.3%
viability, T/C [33]: 50.6%
viability, T/C [34]: 49.7%
viability, T/C [35]: 49.8%
viability, T/C [36]: 36.8%

CC1COCCN1c1cc(C2(S(C)(=N)=O)CC2)nc(-c2ccnc3[nH]ccc23)n1 (stereo unspecified) + Nc1ccc(C#CCN(C(=O)Cc2ncc(C(F)(F)F)cc2C(F)(F)F)c2ccc(F)cc2)nn1
IC50 (second compound 0.0316 µM): > 10 µM
IC50 (second compound 0.1 µM): > 10 µM
IC50 (second compound 0.316 µM): > 10 µM
IC50 (second compound 1 µM): > 10 µM
IC50 (second compound 3.16 µM): > 10 µM
IC50 (second compound 10 µM): > 10 µM
viability, T/C [1]: 98.7%
viability, T/C [2]: 98.4%
viability, T/C [3]: 88.9%
viability, T/C [4]: 95.8%
viability, T/C [5]: 89%
viability, T/C [6]: 74.7%
viability, T/C [7]: 99.4%
viability, T/C [8]: 91%
viability, T/C [9]: 96.7%
viability, T/C [10]: 79.6%
viability, T/C [11]: 84.1%
viability, T/C [12]: 71.5%
viability, T/C [13]: 94.5%
viability, T/C [14]: 115%
viability, T/C [15]: 96.3%
viability, T/C [16]: 90.8%
viability, T/C [17]: 77%
viability, T/C [18]: 70.5%
viability, T/C [19]: 98.3%
viability, T/C [20]: 105%
viability, T/C [21]: 98%
viability, T/C [22]: 96.4%
viability, T/C [23]: 74.8%
viability, T/C [24]: 65.3%
viability, T/C [25]: 94.1%
viability, T/C [26]: 98.9%
viability, T/C [27]: 95.3%
viability, T/C [28]: 76%
viability, T/C [29]: 83.7%
viability, T/C [30]: 67.5%
viability, T/C [31]: 99.3%
viability, T/C [32]: 101%
viability, T/C [33]: 86.8%
viability, T/C [34]: 94.7%
viability, T/C [35]: 84.9%
viability, T/C [36]: 72%
